From US20140107062A1, “COMPOSITIONS AND METHODS FOR TREATING OR PREVENTING DISEASES OF BODY PASSAGEWAYS” (Aravasc Inc., priority 2007, published 2014)
≈ marks a conversion by molar mass, not a printed value. Where “and” joins values, the source holds several entries; their conditions need not be identical. Equal entries are not always repeated. Where two headings read alike, the source gives them in different places.

Key:
[1] = Solubility of analytes and polymer in solvents, dissolution media and water; type: physicochemical
[2] = Drug distribution 28-day PK study in naïve mice implanted with ETDS; type: in vivo; settings: for Distribution of drugs from the implants in vivo: subcutaneous ETDS implants in mice
Protocol: An in vivo 28-day PK and drug distribution studies was conducted to understand drug distribution and the release profile/duration of drug-released from the different ETDS.
Nine mice were subcutaneously implanted with the same ETDS as implanted in the efficacy study. […] […] Three animals were terminated at each of these time points. Drug distribution in the plasma and skin tissue was analyzed by LC-MS. The preclinical stents were explanted and assayed for residual drug.

[3] = Drug levels in tumor-bearing mice at efficacy study termination; type: in vivo; settings: for Drug Exposure, Tumor Tissue / Drug Exposure, Plasma: efficacy study; for Drug Exposure, Tumor Tissue: day 28-47; for Drug Exposure, Plasma: day 28-47, n = 8; for Explanted ETDS (Residual - efficacy): n = 3, ETDS 125 ± 25 ug total drug (1:1)
Protocol: The fast release mini-ETDS ensured the highest dose delivery. Coated or uncoated fast release preclinical ETDS were implanted in contact with tumor (300 mm^3), 14 days after inoculation of human esophageal-gastric cancer line NUGC4-GFP into nude mice. Tumor growth inhibition was evaluated over 47 day period post-implantation (FIG. 24). […] The projected in vivo dose/day based on an assumption of constant release after the initial ‘burst-effect’, is about 0.45 mg/kg/day.
A drug-dye distribution study was conducted in naïve mice. Plasma, skin tissue at implant site and skin tissue at contralateral site was sampled at defined intervals ranging from 2 hours-28 days. Similarly, plasma and tumor tissue was sampled at efficacy study termination at either 28 or […] days post implantation.
Drug-dye exposure levels in each of these biological samples was quantitated by LC-MS to obtain correlations between efficacious levels of exposure and release profile in naïve mice.
The LCMS analysis was conducted using validated bioanalytical methods discussed below except for HCFU. […] Samples were processed and analyzed immediately. Values may be underestimated.

[4] = administered systemically; cited from earlier work
[5] = Stability of ICG and HCFU (pH, dissolution media, ETDS product); type: physicochemical
Excerpt: A suboptimal pH (4) for the dissomedia was chosen to preserve both and simultaneously quantitate them as they eluted.
A suboptimal but workable pH 4 was chosen to evaluate the release profile.

[6] = under physiological conditions and under acidic conditions (pH<4); cited from earlier work
[7] = cited from earlier work
[8] = in vivo; settings: rat
Excerpt: The animals were anesthetized while dosing. […] Samples were frozen until processed for LC-MS analysis.
(§1) The equipment used was a SCIEX PE 3000.
(§2) The supernatant extract was subject to LCMS analysis.

[9] = Rat in situ intra-tracheal infusion of THX-polymer formulation; type: in vivo; settings: 8 mg/kg
Protocol: A pilot study of in situ intra-tracheal infusion was performed to estimate tracheal and lung tissue levels after in situ intra-tracheal infusion of THX-polymer formulation.
Two rats (immediately after termination) were intra-tracheally infused over 30 mins with a THX-polymer formulation. The dose was 8 mg/kg and volume was 200 μl. After infusion these were wrapped for 2 hours in a warm heating pad. Tracheo-bronchial and lung tissue were harvested after wiping the lumen area of the tracheo-bronchial lumen with a tissue and spatula (to take off any adsorbed drug) at the end of 2 hours. Samples were frozen at −80 C until processed and analyzed by LC-MS. Sample extraction was conducted at AraVasc Inc. The processed samples were analyzed at Alta Analytical laboratories by LC-MS.
as §1, §2

[10] = system: liver and lung cancer; settings: preliminary reports, clinical trials; cited from earlier work
[11] = DMF, organic solvent or mixture, read-out: Solubility
[12] = DMSO, organic solvent or mixture, read-out: Solubility
[13] = THF, organic solvent or mixture, read-out: Solubility
[14] = acetonitrile, organic solvent or mixture, read-out: Solubility
[15] = dissolution media, read-out: Solubility
[16] = Day 4, FR ETDS, individual mice
[17] = Day 4, fast release (FR) ETDS, individual mice
[18] = Day 7, FR ETDS, individual mice
[19] = Day 14, FR ETDS, individual mice
[20] = Day 28, FR ETDS, individual mice
[21] = mouse, skin tissue at implantation site, subcutaneous, Day 28, FR ETDS, individual mice, read-out: Tissue Conc. site of implant
[22] = mouse, plasma, subcutaneous, Day 28, FR ETDS, individual mice, read-out: Plasma Conc.
[23] = mouse, skin tissue at implantation site, subcutaneous, Day 14, FR ETDS, individual mice, read-out: Tissue Conc. site of implant
[24] = 200 μl, infused over 30 mins, harvested at 2 hours, individual rats

SMILES | solubility [1, 11] | solubility [1, 12] | solubility [1, 13] | solubility [1, 14] | solubility [1, 15] | solubility ([1]; water, read-out: Solubility) | Distribution of drugs from the implants in vivo [2] | Tissue Conc. site of implant [2, 16] | Plasma Conc. [2, 17] | Plasma Conc. [2, 18] | Tissue Conc. site of implant [2, 18] | Plasma Conc. [2, 19] | Tissue Conc. site of implant [2, 19] | Plasma Conc. [2, 20] | Tissue Conc. site of implant [2, 20] | concentration at 28 day [2, 21] | Explanted ETDS (Residual - efficacy) [3] | pulmonary toxicities [4] | concentration at 28 day [2, 22] | concentration at 14 day [2, 23] | also measured
O=c1[nH]cc(F)c(=O)[nH]1 [FLX, 5-fluorouracil] | 45.8 mg/mL (≈ 352 mM) | 59 mg/mL (≈ 454 mM) | 42.1 mg/mL (≈ 324 mM) | 1.81 mg/mL (≈ 13.9 mM) | 42.1 mg/mL (≈ 324 mM) | > 20 mg/mL | High levels |  |  |  |  |  |  |  |  |  |  |  |  |  | 
CC(=O)O[C@H]1C(=O)[C@@]2(C)[C@H]([C@H](OC(=O)c3ccccc3)[C@]3(O)C[C@H](OC(=O)[C@H](O)[C@@H](NC(=O)c4ccccc4)c4ccccc4)C(C)=C1C3(C)C)[C@]1(OC(C)=O)CO[C@@H]1C[C@@H]2O [PTX, Paclitaxel] | 154 mg/mL (≈ 181 mM) | 27.2 mg/mL (≈ 31.9 mM) |  | 44.3 mg/mL (≈ 51.9 mM) | 0.05 to 0.06 mg/mL (≈ 0.0586 to 0.0703 mM) | > 20 mg/mL |  | 18000 ng/g and 6270 ng/g and 6990 ng/g | BLOQ | BLOQ | 22000 ng/g and 10300 ng/g and 47000 ng/g | BLOQ | 16500 ng/g and 10400 ng/g and 21600 ng/g | BLOQ | 12800 ng/g and 10600 ng/g | 18900 ng/g | 15.4 µg | No pulmonary toxicities |  |  | solubility ([1]; THF): 41.7 mg/mL (≈ 48.8 mM); Explanted ETDS Conc. (residual drug) ([2]; Day 14 explanted FR ETDS): 12.30 µg and 14.82 µg and 15.13 µg; Drug Exposure, Plasma ([2]; PTX, naïve mice, day 28, n = 3): BLOQ; concentration at 28 day ([2]; mouse, subcutaneous tissue, subcutaneous, PTX, naïve mice, day 28, n = 3, read-out: Drug Exposure, Subcutaneous Tissue): 12100 ng/g; Drug Exposure, Tumor Tissue ([3]; PTX): 9,668 ng/gm; Drug Exposure, Plasma ([3]; PTX, tumor-bearing mice): 1.53 ng/gm; Average levels detected in plasma ([3]; PTX, tumor-bearing mice): 1.5 ng/mL
CCCCCOC(=O)Nc1nc(=O)n([C@@H]2O[C@H](C)[C@@H](O)[C@H]2O)cc1F [CPX, Capecitabine] | > 50 mg/mL | > 50 mg/mL | > 50 mg/mL | > 0.4 mg/mL | > 10 mg/mL | > 10 mg/mL |  |  |  |  |  |  |  |  |  |  |  |  |  |  | 
CC1(C)C(/C=C/C=C/C=C/C=C2\N(CCCCS(=O)(=O)O)c3ccc4ccccc4c3C2(C)C)=[N+](CCCCS(=O)(=O)[O-])c2ccc3ccccc3c21 [ICG, Indocyanine green] |  |  |  |  |  |  | remained confined to the site of implantation | 15.3 ng/g and 32.4 ng/g and 20.9 ng/g | 2.39 ng/mL and 3.76 ng/mL | 3.23 ng/mL and 0 ng/mL and 2.26 ng/mL | 13.2 ng/g and 12.4 ng/g and 35.9 ng/g | 2.23 ng/mL and 0 ng/mL (2×) | 13.1 ng/g and 14 ng/g | 2.24 ng/mL and 2.26 ng/mL | 11.8 ng/g and 11.9 ng/g | 12.1 ng/g |  |  | 2.39 ng/mL | 12.2 ng/g | concentration at 4 day ([2]; mouse, plasma, subcutaneous, Day 4, fast release (FR) ETDS, individual mice, read-out: Plasma Conc.): 3.89 ng/mL; Stability ([5]; acidic pH<4): not stable; Stability in the dissolution media ([5]; pH<3): unstable; half life t1/2 [6]: < 2 min; in-vivo protein binding [7]: about 95%
O=C1CCC(N2C(=O)c3ccccc3C2=O)C(=O)N1 (racemic) [THX, 2-(2,6-dioxo-3-piperidinyl)-1H-isoindole-1,3(2H)-dione] | 75.5 mg/mL (≈ 292 mM) | 56 mg/mL (≈ 217 mM) | 3.34 mg/mL (≈ 12.9 mM) | 0.79 mg/mL (≈ 3.06 mM) | 3.34 mg/mL (≈ 12.9 mM) | 1.5 mg/mL (≈ 5.81 mM) |  | 387 ng/g and 338 ng/g and 6410 ng/g | 0.95 ng/mL and 3.26 ng/mL and 0.00 ng/mL | 7.27 ng/mL and 9.27 ng/mL | 22.5 ng/g and 66.5 ng/g and 18.4 ng/g | 2.26 ng/mL and 7.55 ng/mL | 15.9 ng/g and 16.8 ng/g | 13.7 ng/mL and 7.79 ng/mL | 20.2 ng/g and 34.0 ng/g and 15.8 ng/g |  |  | No pulmonary toxicities | 9.03 ng/mL | 30.9 ng/g | concentration at 20 min ([8]; 4 mg/Kg): 190 ng/mL; concentration at 40 min ([8]; 4 mg/Kg): 440 ng/mL; THX levels in lung tissue ([8]; 12 mg/kg): High levels; THX levels in plasma ([8]; 12 mg/kg): low levels; Tissue Levels Lung [9, 24]: 0.75 μg/100 mg and 0.58 μg/100 mg; Tissue Levels Trachea [9, 24]: 211.21 μg/100 mg and 290.36 μg/100 mg; THX levels in tracheo-bronchial and lung tissue ([9]; in situ infusion (0.5 hr)): High levels; concentration at 2 h ([9]; rat, lung, other: in situ intra-tracheal infusion, 200 μl, infused over 30 mins, harvested at 2 hours, individual rats, read-out: Tissue Levels Lung): 5800 ng/g; concentration at 7 day ([2]; mouse, plasma, subcutaneous, Day 7, FR ETDS, individual mice, read-out: Plasma Conc.): 5.42 ng/mL; disease control rates [10]: 8%-57%; response rates [10]: 4%-10%
CCCCCCNC(=O)n1cc(F)c(=O)[nH]c1=O [HCFU, Carmofur] | > 50 mg/mL | > 50 mg/mL | > 50 mg/mL | > 0.4 mg/mL | 0.05 to 0.06 mg/mL (≈ 0.194 to 0.233 mM) | 0.02 to 0.03 mg/mL (≈ 0.0777 to 0.117 mM) |  |  |  |  |  |  |  |  |  |  | 2.1 µg |  |  |  | concentration at 28 day ([2]; mouse, plasma, subcutaneous, HCFU, naïve mice, day 28, n = 3, read-out: Drug Exposure, Plasma): 48.2 ng/mL; concentration at 28 day ([2]; mouse, subcutaneous tissue, subcutaneous, HCFU, naïve mice, day 28, n = 3, read-out: Drug Exposure, Subcutaneous Tissue): 43.3 ng/mL; Drug Exposure, Tumor Tissue ([3]; HCFU): 54.1 ng/mL; Drug Exposure, Plasma ([3]; HCFU, tumor-bearing mice): 59 ng/mL and 58.97 ng/mL; Tumor tissue exposure at steady state, average ([3]; HCFU, termination day 28-47): 54 ng/gm; Stability in the dissolution media ([5]; pH>3): unstable; Stability ([5]; pH>4): not stable; Stability ([5]; physiological pH): limited stability
